We go through one compound from article PMC11139994, “Inflammation causes insulin resistance in mice via interferon regulatory factor 3 (IRF3)-mediated reduction in FAHFA levels” (Nature Communications, 2024).

Assay [1] has as its target T1, ABHD6 (Mus musculus, UniProt Q8R2Y0).
T1 construct: endogenous ABHD6 in mouse brain proteome
T1 sequence (Q8R2Y0 1-336): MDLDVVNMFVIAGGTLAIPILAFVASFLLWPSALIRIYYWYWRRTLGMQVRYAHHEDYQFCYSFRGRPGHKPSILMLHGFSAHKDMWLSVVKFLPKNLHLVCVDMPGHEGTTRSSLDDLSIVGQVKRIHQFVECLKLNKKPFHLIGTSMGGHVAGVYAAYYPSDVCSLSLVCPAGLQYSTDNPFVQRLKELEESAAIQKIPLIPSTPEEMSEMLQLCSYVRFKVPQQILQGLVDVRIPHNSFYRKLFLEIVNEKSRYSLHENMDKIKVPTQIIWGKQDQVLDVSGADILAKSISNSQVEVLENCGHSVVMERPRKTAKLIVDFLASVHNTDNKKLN
The assay is described as follows: competitive MS-based ABPP-ReDiMe (FP-biotin) in mouse brain proteome (off-target). The assay is classed as cell-based.

Assay [2] concerns the target T2, AIG1 (androgen induced gene 1) (Mus musculus, UniProt Q9D8B1).
T2 construct: endogenous AIG1 in mouse brain membrane proteome
T2 sequence (Q9D8B1 1-238): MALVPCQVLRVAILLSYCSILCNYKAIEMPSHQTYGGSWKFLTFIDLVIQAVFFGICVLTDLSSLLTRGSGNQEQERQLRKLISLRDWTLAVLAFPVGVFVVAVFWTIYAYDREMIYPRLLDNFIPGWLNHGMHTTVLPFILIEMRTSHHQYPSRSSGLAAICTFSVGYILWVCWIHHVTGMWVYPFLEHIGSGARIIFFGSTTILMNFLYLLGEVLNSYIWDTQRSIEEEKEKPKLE
Nature of the assay: competitive gel-based ABPP (FP-Rh) in mouse brain membrane proteome; also MS-based ABPP and in vivo target engagement. The assay is classed as biochemical.

As a reminder, the IC50 is the midpoint of a concentration-inhibition curve.

In the case of `CN(c1ccn(C(=O)N2CCc3ccc(Oc4ccccc4)cc3C2)n1)S(C)(=O)=O` [ABD-110, N-methyl-N-(1-(7-phenoxy-1,2,3,4-tetrahydroisoquinoline-2-carbonyl)-1H-pyrazol-3-yl)methanesulfonamide], in assay [1], the “competitive MS-based ABPP-ReDiMe (FP-biotin) in mouse brain proteome (off-target)” value was “with only a few off-targets detected, including ABHD6 and several highly homologous, mouse-specific carboxylesterases (CESs)”. Also, in assay [2], the IC50 stood at 1.6 nM.
